Assay results as given in PMC4779111, “A Human Renal Proximal Tubule Cell Line with Stable Organic Anion Transporter 1 and 3 Expression Predictive for Antiviral-Induced Toxicity” (The AAPS Journal, 2016).
Where two headings read alike, the source gives them in different places.

Tests used:
[1] = biological target: T1, OAT3 (Homo sapiens, UniProt Q8TCC7); experiment: Inhibition of OAT-mediated fluorescein uptake in ciPTEC-OAT3
T1 sequence (Q8TCC7 1-542): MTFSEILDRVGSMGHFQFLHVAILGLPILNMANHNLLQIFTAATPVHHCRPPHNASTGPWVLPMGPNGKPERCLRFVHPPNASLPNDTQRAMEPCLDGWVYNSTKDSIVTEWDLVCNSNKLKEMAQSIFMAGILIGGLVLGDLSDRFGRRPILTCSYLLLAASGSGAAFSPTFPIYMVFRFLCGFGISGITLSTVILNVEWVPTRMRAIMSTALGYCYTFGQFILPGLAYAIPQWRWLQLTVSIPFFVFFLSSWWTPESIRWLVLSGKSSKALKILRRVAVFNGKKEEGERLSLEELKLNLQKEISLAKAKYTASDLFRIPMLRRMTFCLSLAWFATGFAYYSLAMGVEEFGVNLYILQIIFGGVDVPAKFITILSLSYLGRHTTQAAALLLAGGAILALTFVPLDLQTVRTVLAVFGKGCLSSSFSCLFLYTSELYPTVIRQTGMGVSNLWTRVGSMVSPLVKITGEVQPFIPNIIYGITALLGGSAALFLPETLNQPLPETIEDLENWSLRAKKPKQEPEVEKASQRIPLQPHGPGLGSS
Protocol: (§1) All chemicals were obtained from Sigma, unless stated otherwise. Uptake was stopped by washing three times with ice-cold HBSS (4°C).
(§2) Non-linear regression with variable slope constraining the top to 100% was used to fit the data after background subtraction with GraphPad Prism. Statistics was performed by two-way ANOVA (two-tailed, α = 0.05) using GraphPad Prism as well. All data is presented as mean ± SEM of at least three separate experiments (n = 3) performed in triplicate, unless stated otherwise.

[2] = test system: ciPTEC-OAT1; experiment: MTT viability assay, ciPTEC-OAT1; format: cell-based, human
[3] = test system: ciPTEC-OAT3; experiment: MTT viability assay, ciPTEC-OAT3; format: cell-based, human
Protocol: Cell toxicity was analyzed further in presence of MRP and BCRP efflux inhibitors MK571 (5 μM) and KO143 (10 μM).

[4] = test system: ciPTEC parent; experiment: MTT viability assay, ciPTEC parent; format: cell-based, human; conditions: 50 μM (10× Cmax) with MK571 and KO143
Protocol: Briefly, monolayers of ciPTEC (96-wells) were exposed to antivirals in serum-free medium (SFM) on day 6 of maturation.
as §2

[5] = plasma, maximal free plasma concentration, 47 (zidovudine), cited from earlier work
[6] = set-up: method as in PMID 19445515; conditions: cited from earlier work
[7] = biological target: T2, OAT1 (Homo sapiens, UniProt Q4U2R8); experiment: Inhibition of OAT-mediated fluorescein uptake in ciPTEC-OAT1; format: cell-based; set-up: host or cells: ciPTEC (human conditionally immortalized proximal tubule epithelial cells), lentiviral transduction
T2 sequence (Q4U2R8 1-563): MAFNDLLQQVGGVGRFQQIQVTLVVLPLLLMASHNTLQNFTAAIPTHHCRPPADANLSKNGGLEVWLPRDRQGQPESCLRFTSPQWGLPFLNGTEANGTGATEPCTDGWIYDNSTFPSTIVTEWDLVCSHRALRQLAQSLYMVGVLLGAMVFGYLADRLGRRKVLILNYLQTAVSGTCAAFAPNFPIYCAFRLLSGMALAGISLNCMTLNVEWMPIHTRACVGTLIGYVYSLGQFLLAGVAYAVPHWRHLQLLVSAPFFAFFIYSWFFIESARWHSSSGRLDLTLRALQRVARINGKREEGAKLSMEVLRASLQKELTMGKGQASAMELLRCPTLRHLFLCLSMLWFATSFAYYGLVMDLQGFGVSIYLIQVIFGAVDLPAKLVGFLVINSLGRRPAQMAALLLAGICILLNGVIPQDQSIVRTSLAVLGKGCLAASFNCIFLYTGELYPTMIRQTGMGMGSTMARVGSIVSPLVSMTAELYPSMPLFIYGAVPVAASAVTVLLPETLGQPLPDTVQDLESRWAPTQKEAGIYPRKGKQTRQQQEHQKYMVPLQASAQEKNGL
Protocol: as §1, §2

[8] = biological target: OCT2 (Homo sapiens, UniProt O15244); conditions: ASP+ 1 µM, 60 min, HBSS 37°C; similar IC50 in ciPTEC parent, ciPTEC-OAT1, ciPTEC-OAT3 (p>0.05)
Chain of OCT2 (O15244 whole entry): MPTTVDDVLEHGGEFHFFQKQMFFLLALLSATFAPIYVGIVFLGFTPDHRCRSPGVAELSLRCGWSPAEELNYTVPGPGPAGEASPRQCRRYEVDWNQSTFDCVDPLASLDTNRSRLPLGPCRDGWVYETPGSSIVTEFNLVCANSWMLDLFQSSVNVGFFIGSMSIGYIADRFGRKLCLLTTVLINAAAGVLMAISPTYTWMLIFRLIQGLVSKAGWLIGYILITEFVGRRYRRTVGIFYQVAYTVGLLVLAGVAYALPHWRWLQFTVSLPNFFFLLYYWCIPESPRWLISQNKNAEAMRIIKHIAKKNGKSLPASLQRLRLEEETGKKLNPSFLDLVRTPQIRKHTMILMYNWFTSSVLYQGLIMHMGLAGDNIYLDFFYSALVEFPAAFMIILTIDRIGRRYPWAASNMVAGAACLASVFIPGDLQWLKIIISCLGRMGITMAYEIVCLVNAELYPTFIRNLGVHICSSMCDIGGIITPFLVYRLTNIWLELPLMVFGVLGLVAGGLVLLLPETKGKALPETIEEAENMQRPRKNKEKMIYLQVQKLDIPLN
Protocol: Supplementary Figure S1. […] ASP+ uptake (1 […]
µM) by ciPTEC parent, ciPTEC-OAT1 and ciPTEC-OAT3 when co-incubated with OCT2-substrate […]
The lines represent the fit according to a one-site competition model. Values are expressed as ±SEM, (ciPTEC, n=3; ciPTEC- […]
OAT1, n=4; ciPTEC-OAT3, n=2.
(1 picture or pasted object on this page, not shown here)

[9] = biological target: T1, OAT3; conditions: substrate estrone sulfate, Xenopus-OAT3; read-out: IC50 (literature); cited from earlier work
[10] = biological target: T1, OAT3; set-up: host or cells: ciPTEC (human conditionally immortalized proximal tubule epithelial cells), lentiviral transduction; conditions: substrate sitagliptin, CHO-OAT3; read-out: IC50 (literature); cited from earlier work

SMILES	IC50 [1]	Cell viability in presence of efflux inhibitors ([2]; ciPTEC-OAT1, 50 μM (10× Cmax) with MK571 and KO143)	Cell viability (MTT), concentration and time dependence ([2]; ciPTEC-OAT1, 24, 48 and 72 h)	Cell viability in presence of efflux inhibitors ([3]; ciPTEC-OAT3, 50 μM (10× Cmax) with MK571 and KO143)	Cell viability (MTT), concentration and time dependence ([3]; ciPTEC-OAT3, 24, 48 and 72 h)	Cell viability in presence of efflux inhibitors [4]	Cmax ([5]; first-listed (lower) value per drug, ref 40 (adefovir), 42 (cidofovir), 45 (tenofovir))	Cmax ([5]; second-listed (higher) value per drug, ref 41 (adefovir), 43 (cidofovir), 46 (tenofovir))	Fraction eliminated via the urine without metabolic alterations [6]	IC50 [7]	Inhibition of ASP+ uptake at OCT2 [8]	IC50 [9]	IC50 at 10 min ([7]; human, ciPTEC-OAT1 cells (mature monolayers), probe fluorescein (1 μM))	IC50 [10]
Cc1cn([C@H]2C[C@H](N=[N+]=[N-])[C@@H](CO)O2)c(=O)[nH]c1=O [Zidovudine, zidovudine]	21 ± 4 µM	did not affect cell viability	did not affect cell viability	did not affect cell viability	did not affect cell viability	did not affect cell viability	5.5 µM	6.6 µM	23%	14 ± 7 µM	–	–	–	–
CN/C(=N/CCSCc1nc[nH]c1C)NC#N [Cimetidine, cimetidine]	215 ± 162 µM	–	–	–	–	–	–	–	–	–	significant inhibition	53 µM	654 ± 291 µM	79 µM
